Data as given in patent US8883841B2, “Oncogenic ras-specific cytotoxic compound and methods of use thereof” (The Board of Regents of the University of Texas System, priority 2005, dated 2014).
Read-outs that look alike come from different tables or passages of the source.

Key:
[1] = system: H1299 cells; assay: Cell viability, H1299 lung cancer cells; type: cell-based, human
[2] = system: H460 cells; assay: cells; settings: Homo sapiens
[3] = system: A549 cells; assay: Cell viability, A549 lung cancer cells; type: cell-based, human
[4] = system: Ovca429; assay: Cell viability, Ovca429 ovary cancer cells; type: cell-based
[5] = system: Capanc-1; assay: Cell viability, Capanc-1 pancreatic cancer cells; type: cell-based, human
[6] = system: T29 cells; assay: cells; settings: Homo sapiens, T29, read-out: IC50 in T29 cells
[7] = system: H2122; assay: Cell viability, H2122 lung cancer cells; type: cell-based, human
[8] = system: DLD1; assay: Cell viability, DLD1 colon cancer cells; type: cell-based, human
[9] = system: H322 cells; assay: Cell viability, H322 lung cancer cells; type: cell-based, human
[10] = system: H2087; assay: Cell viability, H2087 lung cancer cells; type: cell-based, human
[11] = system: H1395; assay: Cell viability, H1395 lung cancer cells; type: cell-based, human
[12] = system: Hct116; assay: Cell viability, Hct116 colon cancer cells; type: cell-based, human
[13] = system: Ovcar3; assay: Cell viability, Ovcar3 ovary cancer cells; type: cell-based
[14] = system: H23; assay: Cell viability, H23 lung cancer cells; type: cell-based, human
[15] = system: H1933; assay: Cell viability, H1933 lung cancer cells; type: cell-based, human
[16] = system: Heb46; assay: Cell viability, Heb46 kidney cells; type: cell-based
[17] = system: Ovcar443; assay: Cell viability, Ovcar443 ovary cancer cells; type: cell-based
[18] = system: A549CK8; assay: Cell viability, A549CK8 lung cancer cells; type: cell-based, human
[19] = system: SKOV3; assay: Cell viability, SKOV3 ovary cancer cells; type: cell-based
[20] = system: Heb44; assay: Cell viability, Heb44 kidney cells; type: cell-based
[21] = system: HKE3; assay: Cell viability, HKE3 colon cancer cells; type: cell-based, human; settings: for IC50: Homo sapiens; for IC50 (−LogM): HKE3, Colon
[22] = system: Hey; assay: Cell viability, Hey ovary cancer cells; type: cell-based
[23] = system: T29Kt1 cells; assay: cells; settings: Homo sapiens, T29Kt1, read-out: IC50 in T29k cells, Table 1
[24] = system: miapac; assay: Cell viability, miapac pancreatic cancer cells; type: cell-based, human
[25] = system: H2009; assay: Cell viability, H2009 lung cancer cells; type: cell-based, human
[26] = system: H226B cells; assay: Cell viability, H226B lung cancer cells; type: cell-based, human; settings: for IC50: Homo sapiens; for IC50 (−LogM): H226B, Lung
[27] = system: CT116P53; assay: Cell viability, CT116P53 colon cancer cells; type: cell-based, human
[28] = system: AsPC-1; assay: Cell viability, AsPC-1 pancreatic cancer cells; type: cell-based, human
[29] = system: H460 cells; settings: H460, Lung
[30] = system: Sw620; assay: Cell viability, Sw620 colon cancer cells; type: cell-based, human; settings: Sw620, Colon
[31] = system: T29Kt1 cells; settings: Table 1; value is the negative log10 of mol/L
[32] = Homo sapiens, read-out: IC50 (−LogM) (converted)

Which IC50 ([1]; Homo sapiens, NCI-H1299, read-out: IC50 (−LogM), h1299, Lung (converted)) does the source give for `O=Cc1cn(Cc2cccc([N+](=O)[O-])c2)c2ccccc12` [Oncrasin K68, 1-(3-nitrobenzyl)-1H-indole-3-carbaldehyde] here?
The IC50 was 10 µM.

What about the IC50 ([2]; NCI-H460, read-out: IC50 (−LogM), H460, Lung (converted)) of the same compound?
The IC50 was 0.0398 µM.

And the IC50 ([2]; NCI-H460, read-out: IC50 in H460 cells, Table 1)?
The IC50 was 0.0398 µM.

What about the IC50 ([3]; Homo sapiens, A549, read-out: IC50 (−LogM), A549, Lung (converted)) of the same compound?
Its IC50 is 5.01 µM.

What about the IC50 [4] of the same compound?
The IC50 was 31.6 µM.

And the IC50 ([5]; Homo sapiens, Pancreatic cancer cell, read-out: IC50 (−LogM), capanc1, Pancrease (converted))?
Its IC50 is 31.6 µM.

What about the IC50 [6] of the same compound?
Its IC50 is 31.6 µM.

What about the IC50 ([7]; Homo sapiens, NCI-H2122, read-out: IC50 (−LogM) (converted)) of the same compound?
The IC50 was 1 µM.

And the IC50 ([8]; Homo sapiens, DLD-1, read-out: IC50 (−LogM) (converted))?
Its IC50 is under 31.6 µM.

What about the IC50 ([9]; Homo sapiens, NCI-H322, read-out: IC50 (−LogM) (converted)) of the same compound?
The IC50 was 31.6 µM.

And the IC50 ([10]; Homo sapiens, NCI-H2087, read-out: IC50 (−LogM) (converted))?
The IC50 was 31.6 µM.

What about the IC50 ([11]; Homo sapiens, NCI-H1395, read-out: IC50 (−LogM) (converted)) of the same compound?
Its IC50 is under 31.6 µM.

And the IC50 ([12]; Homo sapiens, HCT-116, read-out: IC50 (−LogM), Hct116, Colon (converted))?
Its IC50 is 0.158 µM.

And the IC50 ([13]; Homo sapiens, OVCAR-3)?
Its IC50 is 0.158 µM.

And the IC50 ([14]; Homo sapiens, NCI-H23, read-out: IC50 (−LogM) (converted))?
The IC50 was 31.6 µM.

What about the IC50 [15, 32] of the same compound?
Its IC50 is 25.1 µM.

What about the IC50 [16] of the same compound?
The IC50 was 0.2 µM.

What about the IC50 [17] of the same compound?
The IC50 was 10 µM.

And the IC50 [18, 32]?
Its IC50 is 3.16 µM.

And the IC50 ([19]; Homo sapiens, SK-OV-3)?
Its IC50 is 1 µM.

And the IC50 [20]?
Its IC50 is 0.01 µM.

And the IC50 ([21]; read-out: IC50 (−LogM), HKE3, Colon, first HKE3 line (converted))?
Its IC50 is 0.1 µM.

And the IC50 ([21]; read-out: IC50 (−LogM), HKE3, Colon, second HKE3 line (converted))?
Its IC50 is 0.398 µM.

And the IC50 [22]?
The IC50 was under 31.6 µM.

And the IC50 [23]?
The IC50 was 0.501 µM.

What about the IC50 ([24]; Homo sapiens, Pancreatic cancer cell, read-out: IC50 (−LogM) (converted)) of the same compound?
Its IC50 is under 31.6 µM.

And the IC50 ([25]; Homo sapiens, NCI-H2009, read-out: IC50 (−LogM) (converted))?
Its IC50 is 31.6 µM.

What about the IC50 ([26]; read-out: IC50 (−LogM), H226B, Lung, first H226B line (converted)) of the same compound?
The IC50 was 0.00251 µM.

What about the IC50 ([26]; read-out: IC50 (−LogM), H226B, Lung, second H226B line (converted)) of the same compound?
The IC50 was 0.0631 µM.

What about the IC50 [27, 32] of the same compound?
The IC50 was under 31.6 µM.

And the IC50 ([28]; Homo sapiens, ASPC1, read-out: IC50 (−LogM), ASPC1, Pancrease (converted))?
Its IC50 is 2 µM.

`OCc1cn(Cc2ccc(Br)cc2)c2ccccc12` [Oncrasin K73, 1H-Indole-3-methanol, 1-{(4-bromophenyl)methyl]-(9CI)] was tested. Which “IC50 (−LogM)” value ([1]; h1299, Lung) did it give?
The value was >4.5 −LogM.

What about the “IC50 (−LogM)” value [29] of the same compound?
The value was 8.5 −LogM.

And the “IC50 (−LogM)” value ([3]; A549, Lung)?
The value was >4.5 −LogM.

And the “IC50 (−LogM)” value [4]?
Its value is 5.5 −LogM.

What about the “IC50 (−LogM)” value ([5]; capanc1, Pancrease) of the same compound?
The value was 5.5 −LogM.

What about the “IC50 (−LogM)” value [30] of the same compound?
Its value is >4.5 −LogM.

What about the “IC50 (−LogM)” value ([7]; H2122, Lung) of the same compound?
The value was 5.6 −LogM.

And the “IC50 (−LogM)” value ([8]; DLD1, Colon)?
Its value is >4.5 −LogM.

What about the “IC50 (−LogM)” value ([9]; H322, Lung) of the same compound?
Its value is >4.5 −LogM.

What about the “IC50 (−LogM)” value ([10]; H2087, Lung) of the same compound?
Its value is 4.5 −LogM.

What about the “IC50 (−LogM)” value ([11]; H1395, Lung) of the same compound?
The value was >4.5 −LogM.

And the “IC50 (−LogM)” value ([12]; Hct116, Colon)?
The value was 5.5 −LogM.

And the “IC50 (−LogM)” value [13]?
The value was 5.9 −LogM.

What about the “IC50 (−LogM)” value ([14]; H23, Lung) of the same compound?
Its value is 4.5 −LogM.

And the “IC50 (−LogM)” value ([15]; H1933, Lung)?
Its value is 4.5 −LogM.

And the “IC50 (−LogM)” value [16]?
The value was 6.1 −LogM.

What about the “IC50 (−LogM)” value [17] of the same compound?
Its value is 4.8 −LogM.

What about the “IC50 (−LogM)” value ([18]; A549CK8, Lung) of the same compound?
The value was 5.5 −LogM.

And the “IC50 (−LogM)” value [19]?
Its value is 5.5 −LogM.

And the “IC50 (−LogM)” value [20]?
Its value is 7.4 −LogM.

And the “IC50 (−LogM)” value ([21]; first HKE3 line)?
The value was 6.5 −LogM.

And the “IC50 (−LogM)” value ([21]; second HKE3 line)?
Its value is 6.1 −LogM.

What about the “IC50 in T29k cells” value [31] of the same compound?
The value was 6.4.

What about the “IC50 (−LogM)” value [22] of the same compound?
The value was 4.5 −LogM.

What about the “IC50 (−LogM)” value ([24]; miapac, Pancrease) of the same compound?
Its value is >4.5 −LogM.

And the “IC50 (−LogM)” value ([25]; H2009, Lung)?
The value was >4.5 −LogM.

And the “IC50 (−LogM)” value ([26]; first H226B line)?
Its value is 7 −LogM.

What about the “IC50 (−LogM)” value ([26]; second H226B line) of the same compound?
The value was 5.8 −LogM.

And the “IC50 (−LogM)” value ([27]; CT116P53, Colon)?
The value was >4.5 −LogM.

And the “IC50 (−LogM)” value ([28]; ASPC1, Pancrease)?
The value was 5.5 −LogM.
